One test has as its system PTH1R–Gs peptide. As to the kind of experiment: PTH1R-luciferase complementation reporter assay, Gs peptide. It is filed as biochemical, human. To be noted: PTH1R construct named by the receptor or protein whose sequence replaces ICL3 (WT = wild-type); X axis of Figure 5G.
Another test has as its system PTH1R–Gq peptide. As to the kind of experiment: PTH1R-luciferase complementation reporter assay, Gq peptide. In kind it is biochemical, human. To be noted: PTH1R construct named by the receptor or protein whose sequence replaces ICL3 (WT = wild-type); Y axis of Figure 5G. The method, then: For PTH1R luciferase complementation reporter assays, cells were seeded the day prior to transfection at 25-30% confluence on 12-well plates. For each transfection, 0.5 μg DNA, 1.5 μl X-tremeGENE HP, and 100 μl Opti-MEM were combined, incubated for 15-20 min, and added to seeded wells. For each mutant, PTH1R-Gs peptide, PTH1R-Gq peptide and PTH1R-(no peptide) constructs were transfected in parallel. Spep and Qpep constructs were transfected 24 h prior to collection, and no-peptide constructs were transfected 18 h before collection. […] Media in each well was used to gently shear and resuspend the cells by pipetting. The cell mixture was centrifuged (3 min, 300g) and the media was aspirated. Cell pellet was resuspended in 1 ml PBS and centrifuged again as above. […] Cellular debris was removed by centrifugation (1,000g for 1 min). To collect additional vesicles, debris was resuspended in 0.3 ml PBS, briefly vortexed, and centrifuged again (1,000g for 1 min). The ~0.9 ml of combined decanted supernatant was centrifuged one additional time (1,000g for 2 min) to better remove cellular debris. […] Vesicle samples were collected in a 96-well clear bottom plate and assayed for TagRFP fluorescence (Tecan Spark, excitation 521 nm, emission 585 nm, gain 150). For each set of constructs for a given […] ([…] control), samples were diluted to the lowest TagRFP counts. […] The plate was tapped 2-3 times to mix, and the kinetic read was resumed. Moving averages were computed for each kinetic trace (3-point averages for 5 min equilibration, 8-point moving averages post-drug treatment). Each kinetic trace was normalized to the last point of the pre-drug equilibration. The maximum luminescence value that appeared stable over time was used for further analysis. Specific Spep and Qpep signals were calculated by subtracting the control value from the Spep value and the Qpep value for a given experiment.

The target in test [1] is T1, CB1R (Mus musculus, UniProt P47746).
T1 construct: expressed in transfected cells; host or cells: transfected cells (HEK 293T for the β2AR assay)
T1 sequence (P47746 whole entry): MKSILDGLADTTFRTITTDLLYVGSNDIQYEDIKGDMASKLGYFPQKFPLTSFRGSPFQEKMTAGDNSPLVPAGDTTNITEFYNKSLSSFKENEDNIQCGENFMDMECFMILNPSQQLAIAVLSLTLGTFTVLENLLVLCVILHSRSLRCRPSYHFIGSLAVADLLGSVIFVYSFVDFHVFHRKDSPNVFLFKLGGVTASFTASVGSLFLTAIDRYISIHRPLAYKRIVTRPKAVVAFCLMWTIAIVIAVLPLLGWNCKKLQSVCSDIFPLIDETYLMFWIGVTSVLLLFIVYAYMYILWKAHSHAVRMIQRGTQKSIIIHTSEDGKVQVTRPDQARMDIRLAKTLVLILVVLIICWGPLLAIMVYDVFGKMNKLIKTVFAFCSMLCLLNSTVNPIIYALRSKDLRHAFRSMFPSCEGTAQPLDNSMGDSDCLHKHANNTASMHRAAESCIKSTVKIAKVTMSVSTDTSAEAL
As to the kind of experiment: cAMP accumulation, CB1R. It is filed as cell-based, murine. Conditions: CB1R Wild-Type; saturating agonist concentration; 500 µM IBMX. The method, then: (§1) One millilitre of medium was removed from each well containing transfected cells. The remaining volume was used to gently shear and resuspend the cells by pipetting. The cell mixture was centrifuged (3 min, 300g) and media was removed using a vacuum manifold. […] . The cells were washed once by repeating this procedure.
(§2) For all other second messenger assays, expression level and cell density of each condition was estimated through fluorescence. […] Cells were resuspended at 350,000 ± 30,000 fluorescence counts at a wavelength representing optical density of the sample (excitation 430 nm/emission 450 nm), corresponding with 2 × 10^6 ± 5 × 10^5 cells per m^l. This was confirmed by counting the cells on a haemocytometer (Countess II). The following metrics were assessed for optimal expression: mCerulean peak emission (excitation 430 nm/475 nm):optical density emission (excitation 430 nm/emission 450 nm) of 2.0 ± 0.3 and mCitrine peak emission (excitation 490 nm/emission 525 nm):mCerulean peak emission (excitation 430 nm/emission 475 nm) of 2.0 ± 0.2.
(§3) Resuspended cells were added 1:1 with a 2× concentration of ligand (10 µl final) into an opaque 384-well flat bottom plate (Greiner Bio-One). […] . for FSK inhibition assays with β-ARs, 100 µM metoprolol was used. […] Luminescence was measured on a Tecan Spark plate reader (500 ms integration, one measurement per well).

The target of test [2] is T2, CB1R (Mus musculus, UniProt P47746, DEL312-328).
T2 construct: expressed in transfected cells; host or cells: transfected cells (HEK 293T for the β2AR assay)
T2 sequence (P47746 with tags, fused parts or gaps DEL312-328): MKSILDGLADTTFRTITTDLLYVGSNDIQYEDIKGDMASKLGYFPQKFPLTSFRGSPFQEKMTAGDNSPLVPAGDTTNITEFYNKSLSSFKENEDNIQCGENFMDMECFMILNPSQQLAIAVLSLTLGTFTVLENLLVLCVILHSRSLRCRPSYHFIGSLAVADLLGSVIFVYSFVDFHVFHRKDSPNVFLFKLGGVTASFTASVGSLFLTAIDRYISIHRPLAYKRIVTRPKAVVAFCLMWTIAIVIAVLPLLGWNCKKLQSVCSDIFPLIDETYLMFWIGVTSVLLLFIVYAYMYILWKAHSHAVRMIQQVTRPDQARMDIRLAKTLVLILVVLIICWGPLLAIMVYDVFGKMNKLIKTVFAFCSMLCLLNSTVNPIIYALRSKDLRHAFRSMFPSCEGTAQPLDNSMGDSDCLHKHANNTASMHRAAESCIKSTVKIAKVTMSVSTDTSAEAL
As to the kind of experiment: cAMP accumulation, CB1R. It is filed as cell-based, murine. Conditions: CB1R ∆ICL3; saturating agonist concentration; 500 µM IBMX. As to the method: as §1, §2, §3

Test [3] addresses T1, CB1R. As to the kind of experiment: InsP1 accumulation, CB1R. It is filed as cell-based, murine. Conditions: CB1R Wild-Type; saturating agonist concentration. As to the method: (§4) One millilitre of medium was removed from each well containing transfected cells. The remaining volume was used to gently shear and resuspend the cells by pipetting. The cell mixture was centrifuged (3 min, 300g) and media was removed using a vacuum manifold. […] The cells were washed once by repeating this procedure.
as §2
(§5) Resuspended cells were added 1:1 with a 2× concentration of ligand (70 µl final) into an opaque 96-well U-bottom plate (Greiner Bio-One). […] Plates were incubated at 37 °C for 2 h to stimulate InsP1 production. […] FRET ratio for each reading was calculated as the ratio of acceptor emission to donor emission. […]

The target of test [4] is T2, CB1R. The experiment in a line: InsP1 accumulation, CB1R. In kind it is cell-based, murine. To be noted: CB1R ∆ICL3; saturating agonist concentration. The method, then:
as §4, §2, §5

Test [5] addresses T3, A1R (Homo sapiens, UniProt P30542).
T3 sequence (P30542 1-326): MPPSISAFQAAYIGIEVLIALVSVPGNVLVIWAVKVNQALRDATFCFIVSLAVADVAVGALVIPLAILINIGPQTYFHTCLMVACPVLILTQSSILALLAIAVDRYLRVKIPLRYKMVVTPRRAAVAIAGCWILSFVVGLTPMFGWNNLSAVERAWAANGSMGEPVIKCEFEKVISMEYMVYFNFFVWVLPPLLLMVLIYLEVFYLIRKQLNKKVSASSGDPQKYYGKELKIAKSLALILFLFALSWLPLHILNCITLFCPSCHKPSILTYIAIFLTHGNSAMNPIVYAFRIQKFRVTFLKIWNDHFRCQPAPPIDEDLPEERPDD
The experiment in a line: cAMP accumulation, A1R. It is filed as cell-based. To be noted: AA1R Wild-Type; saturating agonist concentration; 500 µM IBMX. As to the method: as §1, §2, §3

Test [6] deals with T4, A1R (Homo sapiens, UniProt P30542, DEL216-222).
T4 construct: expressed in transfected cells; host or cells: transfected cells (HEK 293T for the β2AR assay)
T4 sequence (P30542 with tags, fused parts or gaps DEL216-222): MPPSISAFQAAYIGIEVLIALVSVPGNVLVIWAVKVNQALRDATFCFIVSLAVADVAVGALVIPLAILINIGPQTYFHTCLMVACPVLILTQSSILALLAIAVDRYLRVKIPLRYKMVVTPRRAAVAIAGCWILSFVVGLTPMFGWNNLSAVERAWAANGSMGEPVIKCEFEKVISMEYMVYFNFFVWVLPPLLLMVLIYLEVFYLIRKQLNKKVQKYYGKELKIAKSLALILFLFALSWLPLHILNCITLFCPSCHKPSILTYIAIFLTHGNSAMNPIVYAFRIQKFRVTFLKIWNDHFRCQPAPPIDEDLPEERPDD
The experiment in a line: cAMP accumulation, A1R. It is filed as cell-based. To be noted: AA1R ∆ICL3; saturating agonist concentration; 500 µM IBMX. The method, then: as §1, §2, §3

For test [7], the target named is T3, A1R. As to the kind of experiment: InsP1 accumulation, A1R. In kind it is cell-based. To be noted: AA1R Wild-Type; saturating agonist concentration.
From the text: (§6) For all other second messenger assays, expression level and cell density of each condition was estimated through fluorescence. Fluorescence spectra for mCerulean (Horiba Fluoromax 4, excitation 430 nm, emission scan 450–600 nm, bandpass 4 nm) and mCitrine (Horiba Fluoromax 4, excitation 490 nm, emission scan 500–600 nm, bandpass 4 nm) were acquired for each condition. Cells were resuspended at 350,000 ± 30,000 fluorescence counts at a wavelength representing optical density of the sample (excitation 430 nm/emission 450 nm), corresponding with 2 × 10^6 ± 5 × 10^5 cells per m^l. […]
(§7) Resuspended cells were added 1:1 with a 2× concentration of ligand (70 µl final) into an opaque 96-well U-bottom plate (Greiner Bio-One). […] FRET ratio for each reading was calculated as the ratio of acceptor emission to donor emission. InsP1 signal for a drug and transfection combination was calculated as the average FRET ratio of a given transfection condition without drug treatment subtracted from the average FRET ratio of a of a given transfection condition with drug treatment.
Test [8] has as its target T4, A1R. As to the kind of experiment: InsP1 accumulation, A1R. It is filed as cell-based. To be noted: AA1R ∆ICL3; saturating agonist concentration.
From the text: as §6, §7
For another test, the target named is β2AR–mCerulean (Homo sapiens, UniProt P07550, DEL236-262). To be noted: ∆ICL3 β2AR–mCerulean; 10 µM biotinylated Gq peptide, 100 µM isoproterenol; single experiments 1-4.
Test [9] has as its target β2AR (Homo sapiens, UniProt P07550). To be noted: wild-type β2AR; presence of Gq peptide.
Method: (§8) Reactions were equilibrated, washed, and measured following the same procedure listed above for the radioligand antagonist-binding assay. […] Weighted averages of these IC50 values were used for comparison purposes and inhibition constant (Ki) calculations. […] Binding assays were performed in technical duplicates. Three biological replicates were collected with different membrane preparations for each replicate.
Test [10] deals with β2AR. To be noted: β2AR(∆ICL3); presence of Gq peptide.
Method: as §8
The target in test [11] is β2AR–Gs peptide FRET sensor (Homo sapiens, UniProt P07550, DEL236-257). The experiment in a line: ∆FRET assay, β2AR–Gs peptide SPASM FRET sensor. Conditions: β2AR(∆ICL3)–Gs peptide sensor.
Test [12] has as its system β2AR–Gs peptide FRET sensor. As to the kind of experiment: ∆FRET assay, β2AR–Gs peptide SPASM FRET sensor. To be noted: wild-type β2AR–Gs peptide sensor.
For test [13], the target named is β2AR ICL3 FRET sensor, β2AR(L258Azi/Y350Azi/∆351–413) (Homo sapiens, UniProt P07550, L258F/Y350F). The experiment in a line: Time-correlated single photon counting FRET assay, β2AR ICL3 FRET sensor (AZDye488/AZDye546).
Method: Cell membranes were prepared following the procedure in ‘Crude cell membrane extracts’ through the first ultracentrifugation step (135,000g, 25 min, 4 °C). […] Solution was homogenized, first by passing through a 1 ml micropipette 10 times, then passing through a 20-gauge needle 10 times. To initiate the reaction, sodium ascorbate (50 mM) was added to the mixture and mixed by pipetting (2 ml final volume). Reactions were incubated with mild shaking (500 rpm) for 30 min at 25 °C.
For conditions without drug, peptide or nanobody, an equivalent volume of assay buffer was added. Reactions were equilibrated for 5 min prior to reading. […] Time-resolved fluorescence decay data were fit to the equation: Decay=α1e^−t/τ^1+α2e^−t/τ^2+α3e^−t/τ^3
Amplitude-weighted average lifetimes (τavg) were calculated from the three-exponential decay equation: τavg=(α1τ1+α2τ2+α3τ3)/(α1+α2+α3)
Each condition was performed in technical duplicate or triplicate, depending on sensor yield.
The test system of test [14] is β2AR. The experiment in a line: cAMP accumulation (cAMP-Glo), β2AR. Conditions: Extended Data Figure 6B. In kind it is cell-based, human.
A further test concerns the target T5, β2AR L258Azi (Δ350-413) (Homo sapiens, UniProt P07550, L258F).
T5 construct: HA; mNeonGreen, TagRFP or SNAP (differs by sensor design); expressed in transfected cells; host or cells: crude membrane extracts of transfected cells (HEK293), co-transfected with pIRE4-Azi
As to the kind of experiment: Time-correlated single photon counting, other sensor designs and dye-only controls (mNeonGreen/Cy3, TagRFP/AZDye488, free dyes). In kind it is biochemical. To be noted: Extended Data Figure 4L.

[15] abbreviates: Extended Data Figure 6I, replicates 1-4.
[16] abbreviates: β2AR wild-type and ICL3 alanine mutants, replicates N 1-6, some omitted from analysis.

Several values for one entry are separate records, joined by “and”; a condition that tells them apart may be missing. Identical values can stand only once.

Method for PTH1R–Gs peptide: For PTH1R luciferase complementation reporter assays, cells were seeded the day prior to transfection at 25–30% confluence on 12-well plates. For each transfection, 0.5 µg DNA, 1.5 µl X-tremeGENE HP, and 100 µl Opti-MEM were combined, incubated for 15–20 min, and added to seeded wells. […] Spep and Qpep constructs were transfected 24 h prior to collection, and no-peptide constructs were transfected 18 h before collection.
Expressed PTH1R-luciferase complementation constructs were vesiculated as previously described, with modifications for smaller sample volume[25]. Media in each well was used to gently shear and resuspend the cells by pipetting. The cell mixture was centrifuged (3 min, 300g) and the media was aspirated. Cell pellet was resuspended in 1 ml PBS and centrifuged again as above. Cells were resuspended again in 0.6 ml vesiculation buffer (10 mM HEPES pH 7.4, 150 mM NaCl, 20 mM CaCl2, 2 µg ml^−1 aprotinin, 2 µg ml^−1 leupeptin, 2 mM N-ethylmaleimide) and incubated at 30 °C with shaking at 180 rpm for 2 h. Cellular debris was removed by centrifugation (1,000g for 1 min). To collect additional vesicles, debris was resuspended in 0.3 ml PBS, briefly vortexed, and centrifuged again (1,000g for 1 min). The ~0.9 ml of combined decanted supernatant was centrifuged one additional time (1,000g for 2 min) to better remove cellular debris. Vesicles were collected by centrifugation (3,200g for 40 min at 4 °C) and washed in 0.5 ml assay buffer. Centrifugation step was repeated, and vesicles were resuspended in 0.1 ml assay buffer.
45 µl of each sample was transferred to an opaque 96-well flat bottom plate. 45 µl of Nano-Glo Substrate (Promega N1110) diluted 1:50 in assay buffer was added to each well in the new plate. After tapping the plate to collect liquid at the bottom of the well, a kinetic luminescence read was started (500 ms integration, continuous for 40 min) and luminescence signal was tracked. […] The plate was tapped 2–3 times to mix, and the kinetic read was resumed. Moving averages were computed for each kinetic trace (3-point averages for 5 min equilibration, 8-point moving averages post-drug treatment). Each kinetic trace was normalized to the last point of the pre-drug equilibration. The maximum luminescence value that appeared stable over time was used for further analysis. Specific Spep and Qpep signals were calculated by subtracting the control value from the Spep value and the Qpep value for a given experiment.
Method for β2AR L258Azi (Δ350-413): Solution was homogenized, first by passing through a 1 ml micropipette 10 times, then passing through a 20-gauge needle 10 times. To initiate the reaction, sodium ascorbate (50 mM) was added to the mixture and mixed by pipetting (2 ml final volume). Reactions were incubated with mild shaking (500 rpm) for 30 min at 25 °C. […] For conditions without drug, peptide or nanobody, an equivalent volume of assay buffer was added. Reactions were equilibrated for 5 min prior to reading.
Method for β2AR–mCerulean: Bio-Spep/Bio-Qpep (10 µM final) was added to the reaction mixture (300 µl final) and equilibrated on ice for 30 min. […] To the remaining 200 µl, 20 µl of 0.4 mg ml^−1 streptavidin-coated magnetic beads were added to the reaction mixture, equilibrated for 5 min at ambient temperature, and precipitated using a neodymium disc magnet N52 (20 × 40 mm). Fluorescence spectra was taken of the remaining supernatant in duplicate.

Turning to HRH1, the “Specific Peptide Signal, Gs (Average)” value in the test with PTH1R–Gs peptide amounted to 0.66. In addition, the “Specific Peptide Signal, Gq (Average)” value with PTH1R–Gq peptide is given as -0.09.
As to `CCCCC/C=C\C/C=C\C/C=C\C/C=C\CCCC(=O)OC(CO)CO` [2-Arachidonoylglycerol], the figures for the “cAMP (AU), Average” value at CB1R [1] and on CB1R [2] were 0.05 AU and 0.16 AU, respectively. The “IP1 (AU), Average” value on CB1R [3] is listed as 0.14 AU; at CB1R [4], 0.27 AU.
On to Gamma-synuclein, for which the “Specific Peptide Signal, Gs (Average)” value with PTH1R–Gs peptide is reported as 0.39.
In the case of 5HT1D, the “Specific Peptide Signal, Gs (Average)” value in the test on PTH1R–Gs peptide is recorded as 0.24. Moreover, the “Specific Peptide Signal, Gq (Average)” value in the test with PTH1R–Gq peptide is listed as -0.15.
With `OC[C@H]1O[C@@H](n2cnc3c(NC4CCCC4)ncnc32)[C@H](O)[C@@H]1O` [N^6-cyclopentyladenosine], the “cAMP (AU), Average” value at A1R [5] was -0.0258 AU; at A1R [6], 0.0561 AU. In addition, the “IP1 (AU), Average” value on A1R [7] is on record as 0.15 AU; at A1R [8] it was 0.0652 AU.
On to “N-Biotin-DTENIRFVFAAVKDTILQLNLKEYNLV [Bio-Qpep]”, for which the “Specific mCerulean bound” value at β2AR–mCerulean was 0.09 and 0.14 and 0.15 and 0.12.
5HT2A: the “Specific Peptide Signal, Gs (Average)” value in the test with PTH1R–Gs peptide amounted to 0.37. In addition, the “Specific Peptide Signal, Gq (Average)” value in the test with PTH1R–Gq peptide was 0.0157.
For NTS1, in that order: 0.48 and 0.14.
For GPR27, in that order: 0.79 and 0.14.
Turning to Humanin, in the test on PTH1R–Gs peptide, the “Specific Peptide Signal, Gs (Average)” value was 0.41.
For “DTENIRFVFAAVKDTILQLNLKEYNLV [Gq peptide]”, the figures for the “effect on agonist binding affinity” value on β2AR [9] and with β2AR [10] were “increased agonist binding affinity” and “this effect was lost”, respectively. In addition, the “effect on FRET of β2AR–Gs peptide sensor” value in test [11] is listed as “did not enhance FRET”; in test [12], “enhanced FRET”. In addition, the “Donor-only sample (tau donor) Lifetime (ns)” value in test [13] (setting [15]) was 2.34 ns and 2.38 ns and 2.28 ns and 2.27 ns. Further, the “FRET sample (tau FRET) Lifetime (ns)” value in test [13] (setting [15]) is 2.42 ns (2×) and 2.32 ns and 2.40 ns. The “effect on FRET of the ICL3 FRET sensor” value in [13] (Gq peptide alone) is given as “increased FRET to a similar level to the agonist alone”; in test [13] (combination of agonist and Gq peptide) it was “decreased FRET”.
Turning to HVQ-AAA, the “cAMP (Relative to Wild-Type Average)” value is 1.18 with β2AR [14] (Average); 0.92 and 1.04 and 1.40 and 1.30 and 1.16 and 1.28 in the test on β2AR [14] (setting [16]).
On to Oregon Green, for which the “Fluorescence lifetime, Labeled Receptor, individual replicates 1-3” value on β2AR L258Azi (Δ350-413) was 2.34 and 2.19 and 2.32. In addition, the “Fluorescence lifetime, Labeled Receptor, Average” value at β2AR L258Azi (Δ350-413) (average of 3) was 2.28.
As for QDG-AAA, the “cAMP (Relative to Wild-Type Average)” value with β2AR [14] (Average) was 1.60; with β2AR [14] (setting [16]) it was 1.35 and 1.62 and 1.56 and 1.90 and 1.60 and 1.57.
For CNR2, the “Specific Peptide Signal, Gs (Average)” value in the test on PTH1R–Gs peptide worked out at 0.55. For the same compound, the “Specific Peptide Signal, Gq (Average)” value in the test on PTH1R–Gq peptide came out at 0.16.
In the same order, the values of ADRB1 are 0.47 and 0.0635.

The values are drawn from PMC10033409, “Autoregulation of GPCR signalling through the third intracellular loop” (Nature, 2023).
